This is an account of results in US8143226B2, “Tyrosine kinase receptor antagonists and methods of treatment for breast cancer” (The Regents of the University of California, priority 2005, dated 2012).

One data set concerns MCNeuA tumor cells. Put plainly: Growth of MCNeuA tumors in neuTg mice. Format: in vivo, mouse. Particulars: combined oral 100 mg/kg and i.p. 37.5 mg/kg groups, from 21 days post-implantation. From the text:
All animal studies complied with protocols approved by of the Institutional Animal Care and Use Committee of the University of California, San Francisco. Our syngeneic model studies utilized the FVB/N-TgN(MMTVneu)202 mouse strain developed by Muller and colleagues (Guy CT, Webster MA, Schaller M, Parsons TJ, Cardiff RD, Muller WJ: Expression of the neu protooncogene in the mammary epithelium of transgenic mice induces metastatic disease. Proc Natl Acad Sci USA 89:10578-10582, 1992). This strain, denoted hereafter as neuTg, expresses the wild-type rat neu proto-oncogene (a homologue of human HER2) under the control of the mouse mammary tumor virus (MMTV) long terminal repeat (LTR) on an FVB mouse background. The MCNeuA mammary carcinoma cell line employed in these studies was derived from a spontaneously arising tumor in a neuTg female mouse (Campbell MJ, Wollish WS, Lobo […] LJ: Epithelial and fibroblast cell lines derived from a spontaneous mammary carcinoma in a MMTV/neu transgenic mouse. In Vitro Cell Dev Biol Anim 38:326-333, 2002). These cells are tumorigenic when transplanted back into neuTg mice. […] This solution was kept warm at 37° C. until given to mice by i.p. injection. […] Tumor growth was measured at the time of drug delivery on alternate treatment days with calipers and volume calculated using the equation: (length×width^2)*(π/6). […]

Another data set deals with Akt/BAD pathway. Put plainly: IGF-1 stimulated Akt and BAD phosphorylation in MCF-7 cells (western blot). Format: cell-based, human. The settings on record: 1 nM IGF-1. On the procedure:
Inhibition of IGF-1-stimulated activation of serine kinase Akt was determined in the lysates prepared for the IGF-1R phosphotyrosine ELISA described above. 12 μg of sample was subjected to SDS-PAGE, transfer-ed to a nitrocellulose membrane, and […] quantified by blotting overnight at 4 C with a phospho-specific antibody to Akt (ser473) diluted 1:1000 in Superblock. Next, blots were washed with 3 times with TBST, then incubated with HRP conjugated sheep anti-rabbit IgG diluted 1:10,000 in Superblock for 90 minutes at room temperature. Phosphorylation of the apoptotic protein BAD was determined in the same manner by blotting with a phospho-specific antibody to BAD (ser136) (1:1,000).
In general terms: A western blot detects proteins with antibodies after separation by electrophoresis.

Data set [1] deals with SH-SY5Y, SHEP and Kelly neuroblastoma cells. Put plainly: CyQUANT assay for neuroblastoma cell growth. Format: cell-based, human. The protocol:
CyQUANT assay for cell growth. Cells were plated on four 96-well tissue culture plates, in DMEM/10% calf serum at a density of 8000 cells/well and incubated for 24 h. In one set of experiments, the medium was switched to serum free DMEM supplemented with 1% bovine serum albumin (to provide osmotic support). IGF-I (10 nM) was added to some samples on a daily basis for up to 3 days. […] The media from one plate was immediately removed, and the plate was frozen at −80° C. This plate served as the baseline for the experiment. Single plates were frozen at 24, 48, and 72 h following addition of drugs. DNA content of each well was quantified by staining with CyQUANT according to the manufacturer's instructions and measuring CyQUANT […] with a fluorimeter. Each condition was run in triplicate, and the experiment was repeated three times.

A further data set concerns caspase-3. Put plainly: Caspase-3 cleavage in SH-SY5Y cells. In kind it is cell-based, human. Particulars: SH-SY5Y cells in serum, 6 h. From the text: Detection of Caspase-3 cleavage. […] Lysates were collected as described above, and the 14/17 kD cleavage fragments of caspase-3 were detected via SDS-PAGE followed by immunoblotting with anti-cleaved caspase-3 antibody.

Data set [2] concerns Kelly human neuroblastoma cells. The protocol:
Briefly, 7×10^6 Kelly human neuroblastoma cells were resuspended in a 1:1 mixture of PBS and Matrigel (BD Clontech Inc.) and 100 μl of the mixture was injected subcutaneously into the flanks of 6-12 week-old BALB/c nude mice. […] Tumors were then harvested, weighed and measured. The formula width^2×length/2 was used to calculate tumor-volumes.

The target of a further data set is T1, HER2 (Homo sapiens, UniProt P04626).
T1 construct: MCF-7 cells stably transfected with the full length HER2 cDNA (MCF-7/HER2-18); expressed in transfected cells; host or cells: MCF-7/HER2-18 (from Dr. Christopher Benz)
Put plainly: HER2 phosphorylation ELISA in MCF-7/HER2-18 cells. Format: cell-based. Particulars: not stimulated. (In general: In an ELISA, binding on a coated surface is turned into a signal by an enzyme label.)

For a further data set, the system named is AKT/PKB. Put plainly: Akt/PKB phosphorylation in MCF-7/HER2-18 cells (western blot). In kind it is cell-based, human. The protocol:
[…]. Enzyme linked immunosorbent assays (ELISA) for phosphorylated IGF-1R and HER2 IGF-1R phosphorylation was determined by ELISA as described previously for the insulin receptor [Youngren JF, Goldfine ID and Pratley RE: Decreased muscle insulin receptor kinase con-elates with insulin resistance in normoglycemic Pima Indians. Am J Physiol 273: E276-83, 1997]. Briefly, 10 μg lysate protein were added to triplicate wells in a 96-well plate coated with monoclonal antibody to the IGF-IR (IR3; 2 μg/ml), and incubated for 18 hours at 4° C. Plates were washed five times and then HRP-conjugated anti-phosphotyrosine antibody (0.3 μg/ml), diluted in Solution B (50 mM HEPES, pH 7.6, 150 mM NaCl, 0.05% Tween-20, 1 mM PMSF, 2 mM vanadate and 1 mg/ml bacitracin), was added for two hours at 22° C. Plates were washed five times prior to color development with TMB substrate, which was terminated with 1.0 M H3PO4. Values for receptor phosphorylation were determined by measuring absorbance at 450 nm.
Total protein extracts (10 μg), prepared as described above from cells cultured in the presence or absence of IGF-1 and/or RTK inhibitors, were subjeccted to SDS-PAGE and subsequently transferred to nitrocellulose membranes. […] Membranes were washed again and bound antibodies detected by enhanced chemiluminescence (Pierce). […]

T1 sequence (P04626 23-1255): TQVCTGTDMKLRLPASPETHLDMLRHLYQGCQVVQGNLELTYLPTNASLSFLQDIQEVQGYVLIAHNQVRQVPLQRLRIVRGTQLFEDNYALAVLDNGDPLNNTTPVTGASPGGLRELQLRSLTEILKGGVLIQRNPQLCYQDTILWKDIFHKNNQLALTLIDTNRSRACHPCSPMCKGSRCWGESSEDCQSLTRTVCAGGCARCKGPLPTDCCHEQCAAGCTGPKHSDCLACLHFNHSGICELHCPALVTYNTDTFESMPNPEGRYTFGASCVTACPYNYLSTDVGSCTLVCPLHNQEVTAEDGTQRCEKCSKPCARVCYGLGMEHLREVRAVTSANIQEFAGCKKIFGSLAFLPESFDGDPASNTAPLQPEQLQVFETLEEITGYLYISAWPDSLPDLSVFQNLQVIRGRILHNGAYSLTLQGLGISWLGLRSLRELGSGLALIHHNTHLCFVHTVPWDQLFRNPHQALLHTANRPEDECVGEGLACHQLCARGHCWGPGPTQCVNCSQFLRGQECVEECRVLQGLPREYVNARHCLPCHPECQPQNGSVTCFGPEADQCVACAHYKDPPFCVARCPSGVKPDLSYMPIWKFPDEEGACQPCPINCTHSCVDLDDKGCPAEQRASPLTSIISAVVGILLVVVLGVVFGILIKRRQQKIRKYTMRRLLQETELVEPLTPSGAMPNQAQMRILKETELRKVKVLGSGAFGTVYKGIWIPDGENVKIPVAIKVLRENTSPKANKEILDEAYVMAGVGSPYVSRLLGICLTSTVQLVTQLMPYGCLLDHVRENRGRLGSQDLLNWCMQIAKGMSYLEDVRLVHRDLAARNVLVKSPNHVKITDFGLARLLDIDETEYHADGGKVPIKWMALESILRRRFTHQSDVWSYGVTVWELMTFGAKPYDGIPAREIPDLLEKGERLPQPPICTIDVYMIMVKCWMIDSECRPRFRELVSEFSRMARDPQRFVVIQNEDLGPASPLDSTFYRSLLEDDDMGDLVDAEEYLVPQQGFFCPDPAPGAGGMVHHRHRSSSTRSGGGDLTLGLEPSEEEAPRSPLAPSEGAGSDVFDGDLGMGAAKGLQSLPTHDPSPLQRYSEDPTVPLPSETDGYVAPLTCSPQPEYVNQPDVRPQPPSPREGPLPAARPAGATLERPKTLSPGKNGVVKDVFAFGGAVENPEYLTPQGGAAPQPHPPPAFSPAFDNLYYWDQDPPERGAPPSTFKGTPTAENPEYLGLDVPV

Consider `CC(Cc1ccc(O)c(O)c1)C(C)Cc1ccc(O)c(O)c1` (stereo not drawn) [NDGA, nordihydroguaiaretic acid], for which the tumor growth entry in the data set with MCNeuA tumor cells is reported as “significantly reduced”. Further, in the data set on Akt/BAD pathway, the “IGF-1 stimulated phosphorylation of Akt and BAD” value is listed as “reduced in a dose-dependent manner”. In data set [1] (SH-SY5Y and Kelly cells, up to 72 h), the “proliferation in serum-free media with 10 nM IGF-I” value is listed as “inhibited proliferation”. Moreover, the “proliferation in medium containing 10% serum” value in data set [1] (SH-SY5Y and SHEP cells, up to 72 h) is “inhibited the proliferation”. In data set [1] (serum and serum-free conditions, several days), the “dose that completely blocks neuroblastoma growth in vitro” value lay in the range of 15 to 30 µM. Besides, the caspase-3 activation entry with caspase-3 is “dose-dependent caspase-3 activation”. Further, in data set [2] (50 mg/kg daily for 10 d, nude mice, Kelly xenografts), the “inhibition of tumor growth” value was 50%. The tolerability in mice result in data set [2] (mouse, in vivo) is given as “very well tolerated”. In addition, the HER2 phosphorylation result on HER2 is given as “strongly inhibited”. Further, the IC50 at HER2 (read-out: half maximal effect on HER2 phosphorylation) is roughly 30 µM. Further, in the data set on AKT/PKB (3 nM IGF-1), the “IGF-1 stimulated phosphorylation of AKT/PKB” value was “inhibited”. Moreover, the “level of phospho-AKT/PKB” value with AKT/PKB (absence of IGF-1) was “decreased”.
